{
  "source": "the supplement of paper PMC10307832",
  "experiment_in_all_cases": "relative viability (nuclei count vs DMSO), 5 days (fraction); higher = more cells survive",
  "key": {"[1]": {"system": "NCI-H1975", "outline": "(§1)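 Relative viability is defined as nuclei in treated wells over nuclei in vehicle wells. Duplicate plates were run and medians reported. Lung cancer cell lines in 1536-well plates were dosed by pin tool one day after seeding, with one drug or with a fixed anchor-drug dose plus five library-drug doses (not always all listed) in √10 steps, and nuclei were counted after 5 days.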"}, "[2]": {"system": "HCC-366", "outline": "as §1"}, "[3]": {"system": "SK-LU-1", "outline": "as §1"}, "[4]": {"system": "HARA", "outline": "as §1"}, "[5]": {"system": "NCI-H838", "outline": "as §1"}, "[6]": {"system": "NCI-H520", "outline": "as §1"}, "[7]": {"system": "LK-2", "outline": "as §1"}, "[8]": {"system": "NCI-H1792", "outline": "as §1"}, "[9]": {"system": "LOU-NH91", "outline": "as §1"}, "[10]": {"system": "NCI-H1650", "outline": "as §1"}, "[11]": {"system": "COR-L23", "outline": "as §1"}, "[12]": {"system": "NCI-H1734", "outline": "as §1"}, "[13]": {"system": "ChaGo-K-1", "outline": "as §1"}, "[14]": {"system": "NCI-H1355", "outline": "as §1"}, "[15]": {"system": "NCI-H2405", "outline": "as §1"}, "[16]": {"system": "LCLC-97TM1", "outline": "as §1"}, "[17]": {"system": "NCI-H460", "outline": "as §1"}, "[18]": {"system": "HCC-15", "outline": "as §1"}, "[19]": {"system": "NCI-H1993", "outline": "as §1"}, "[20]": {"system": "201T", "outline": "as §1"}, "[21]": {"system": "NCI-H2085", "outline": "as §1"}, "[22]": {"system": "HCC-78", "outline": "as §1"}, "[23]": {"system": "NCI-H3122", "outline": "as §1"}},
  "data": [
    {"smiles": "Oc1nc(-c2ccc(C(F)(F)F)cc2)nc2c1CSCC2", "note": "[XAV939] + CC1(C)CCC(c2ccc(Cl)cc2)=C(CN2CCN(c3ccc(C(=O)NS(=O)(=O)c4ccc(N[C@H](CCN5CCOCC5)CSc5ccccc5)c(S(=O)(=O)C(F)(F)F)c4)cc3)CC2)C1 [Navitoclax] (partner 0.5 µM)", "values": [
      {"measurement": "relative viability", "setting": "[1]; first compound 0.08 µM", "value": 1.08},
      {"measurement": "relative viability", "setting": "[1]; first compound 0.253 µM", "value": 0.784},
      {"measurement": "relative viability", "setting": "[1]; first compound 0.8 µM", "value": 1.06},
      {"measurement": "relative viability", "setting": "[1]; first compound 2.53 µM", "value": 0.768},
      {"measurement": "relative viability", "setting": "[2]; first compound 0.08 µM", "value": 1.12},
      {"measurement": "relative viability", "setting": "[2]; first compound 0.253 µM", "value": 1.09},
      {"measurement": "relative viability", "setting": "[2]; first compound 0.8 µM", "value": 1.05},
      {"measurement": "relative viability", "setting": "[2]; first compound 2.53 µM", "value": 0.942},
      {"measurement": "relative viability", "setting": "[3]; first compound 0.08 µM", "value": 0.674},
      {"measurement": "relative viability", "setting": "[3]; first compound 0.253 µM", "value": 0.9},
      {"measurement": "relative viability", "setting": "[3]; first compound 0.8 µM", "value": 0.714},
      {"measurement": "relative viability", "setting": "[3]; first compound 2.53 µM", "value": 0.791},
      {"measurement": "relative viability", "setting": "[4]; first compound 0.08 µM", "value": 1.15},
      {"measurement": "relative viability", "setting": "[4]; first compound 0.253 µM", "value": 0.609},
      {"measurement": "relative viability", "setting": "[4]; first compound 0.8 µM", "value": 1.17},
      {"measurement": "relative viability", "setting": "[4]; first compound 2.53 µM", "value": 1.17},
      {"measurement": "relative viability", "setting": "[5]; first compound 0.08 µM", "value": 1.21},
      {"measurement": "relative viability", "setting": "[5]; first compound 0.253 µM", "value": 0.994},
      {"measurement": "relative viability", "setting": "[5]; first compound 0.8 µM", "value": 1.07},
      {"measurement": "relative viability", "setting": "[5]; first compound 2.53 µM", "value": 0.868},
      {"measurement": "relative viability", "setting": "[6]; first compound 0.08 µM", "value": 1.21},
      {"measurement": "relative viability", "setting": "[6]; first compound 0.253 µM", "value": 0.988},
      {"measurement": "relative viability", "setting": "[6]; first compound 0.8 µM", "value": 0.861},
      {"measurement": "relative viability", "setting": "[6]; first compound 2.53 µM", "value": 0.885},
      {"measurement": "relative viability", "setting": "[7]; first compound 0.08 µM", "value": 1.07},
      {"measurement": "relative viability", "setting": "[7]; first compound 0.253 µM", "value": 0.757},
      {"measurement": "relative viability", "setting": "[7]; first compound 0.8 µM", "value": 0.928},
      {"measurement": "relative viability", "setting": "[7]; first compound 2.53 µM", "value": 0.631},
      {"measurement": "relative viability", "setting": "[8]; first compound 0.08 µM", "value": 0.595},
      {"measurement": "relative viability", "setting": "[8]; first compound 0.253 µM", "value": 0.589},
      {"measurement": "relative viability", "setting": "[8]; first compound 0.8 µM", "value": 0.601},
      {"measurement": "relative viability", "setting": "[8]; first compound 2.53 µM", "value": 0.572},
      {"measurement": "relative viability", "setting": "[9]; first compound 0.08 µM", "value": 0.636},
      {"measurement": "relative viability", "setting": "[9]; first compound 0.253 µM", "value": 0.627},
      {"measurement": "relative viability", "setting": "[9]; first compound 0.8 µM", "value": 0.692},
      {"measurement": "relative viability", "setting": "[9]; first compound 2.53 µM", "value": 0.652},
      {"measurement": "relative viability", "setting": "[10]; first compound 0.08 µM", "value": 1.18},
      {"measurement": "relative viability", "setting": "[10]; first compound 0.253 µM", "value": 1.25},
      {"measurement": "relative viability", "setting": "[10]; first compound 0.8 µM", "value": 1.05},
      {"measurement": "relative viability", "setting": "[10]; first compound 2.53 µM", "value": 0.653},
      {"measurement": "relative viability", "setting": "[11]; first compound 0.08 µM", "value": 1},
      {"measurement": "relative viability", "setting": "[11]; first compound 0.253 µM", "value": 0.855},
      {"measurement": "relative viability", "setting": "[11]; first compound 0.8 µM", "value": 0.948},
      {"measurement": "relative viability", "setting": "[11]; first compound 2.53 µM", "value": 0.892},
      {"measurement": "relative viability", "setting": "[12]; first compound 0.08 µM", "value": 0.921},
      {"measurement": "relative viability", "setting": "[12]; first compound 0.253 µM", "value": 0.866},
      {"measurement": "relative viability", "setting": "[12]; first compound 0.8 µM", "value": 0.856},
      {"measurement": "relative viability", "setting": "[12]; first compound 2.53 µM", "value": 0.855},
      {"measurement": "relative viability", "setting": "[13]; first compound 0.08 µM", "value": 0.898},
      {"measurement": "relative viability", "setting": "[13]; first compound 0.253 µM", "value": 0.914},
      {"measurement": "relative viability", "setting": "[13]; first compound 0.8 µM", "value": 0.998},
      {"measurement": "relative viability", "setting": "[13]; first compound 2.53 µM", "value": 1.04},
      {"measurement": "relative viability", "setting": "[14]; first compound 0.08 µM", "value": 0.913},
      {"measurement": "relative viability", "setting": "[14]; first compound 0.253 µM", "value": 0.825},
      {"measurement": "relative viability", "setting": "[14]; first compound 0.8 µM", "value": 0.805},
      {"measurement": "relative viability", "setting": "[14]; first compound 2.53 µM", "value": 0.637},
      {"measurement": "relative viability", "setting": "[15]; first compound 0.08 µM", "value": 0.945},
      {"measurement": "relative viability", "setting": "[15]; first compound 0.253 µM", "value": 0.762},
      {"measurement": "relative viability", "setting": "[15]; first compound 0.8 µM", "value": 0.886},
      {"measurement": "relative viability", "setting": "[15]; first compound 2.53 µM", "value": 0.555},
      {"measurement": "relative viability", "setting": "[16]; first compound 0.08 µM", "value": 0.534},
      {"measurement": "relative viability", "setting": "[16]; first compound 0.253 µM", "value": 0.399},
      {"measurement": "relative viability", "setting": "[16]; first compound 0.8 µM", "value": 0.621},
      {"measurement": "relative viability", "setting": "[16]; first compound 2.53 µM", "value": 0.294},
      {"measurement": "relative viability", "setting": "[17]; first compound 0.08 µM", "value": 1.38},
      {"measurement": "relative viability", "setting": "[17]; first compound 0.253 µM", "value": 1.03},
      {"measurement": "relative viability", "setting": "[17]; first compound 0.8 µM", "value": 1.1},
      {"measurement": "relative viability", "setting": "[17]; first compound 2.53 µM", "value": 1.16},
      {"measurement": "relative viability", "setting": "[18]; first compound 0.08 µM", "value": 0.719},
      {"measurement": "relative viability", "setting": "[18]; first compound 0.253 µM", "value": 0.612},
      {"measurement": "relative viability", "setting": "[18]; first compound 0.8 µM", "value": 0.678},
      {"measurement": "relative viability", "setting": "[18]; first compound 2.53 µM", "value": 0.684},
      {"measurement": "relative viability", "setting": "[19]; first compound 0.8 µM", "value": 0.698},
      {"measurement": "relative viability", "setting": "[19]; first compound 2.53 µM", "value": 0.787},
      {"measurement": "relative viability", "setting": "[20]; first compound 0.08 µM", "value": 1.21},
      {"measurement": "relative viability", "setting": "[20]; first compound 0.253 µM", "value": 1.13},
      {"measurement": "relative viability", "setting": "[20]; first compound 0.8 µM", "value": 1.09},
      {"measurement": "relative viability", "setting": "[20]; first compound 2.53 µM", "value": 1.16},
      {"measurement": "relative viability", "setting": "[21]; first compound 0.08 µM", "value": 1.1},
      {"measurement": "relative viability", "setting": "[21]; first compound 0.253 µM", "value": 1.1},
      {"measurement": "relative viability", "setting": "[21]; first compound 0.8 µM", "value": 1.13},
      {"measurement": "relative viability", "setting": "[21]; first compound 2.53 µM", "value": 0.882},
      {"measurement": "relative viability", "setting": "[22]; first compound 0.08 µM", "value": 0.842},
      {"measurement": "relative viability", "setting": "[22]; first compound 0.253 µM", "value": 0.736},
      {"measurement": "relative viability", "setting": "[22]; first compound 0.8 µM", "value": 0.825},
      {"measurement": "relative viability", "setting": "[22]; first compound 2.53 µM", "value": 0.613},
      {"measurement": "relative viability", "setting": "[23]; first compound 0.08 µM", "value": 1.03},
      {"measurement": "relative viability", "setting": "[23]; first compound 0.253 µM", "value": 1.04},
      {"measurement": "relative viability", "setting": "[23]; first compound 0.8 µM", "value": 1.04},
      {"measurement": "relative viability", "setting": "[23]; first compound 2.53 µM", "value": 0.886}
    ]}
  ]
}
